The results in this text go back to publication PMC9928118, “Funneling modulatory peptide design with generative models: Discovery and characterization of disruptors of calcineurin protein-protein interactions” (PLOS Computational Biology, 2023).

In this assay the test system is GST-tagged Cn. Put plainly: PEPperPRINT peptide microarray binding assay with GST-tagged Cn. The text has this:
We then estimated in-silico the binding strength of the various peptides to Cn by template-based docking followed by flexible backbone refinement using Modeller and PepCrawler (Figs 4 and S4). In parallel, we performed a medium-throughput qualitative binding assay using a PEPperPRINT peptide microarray to evaluate the direct binding of Cn to selected peptides (Figs 4 and S5, S3 Data).
Fig 4 Medium-throughput filtering by structural modeling and microarray screening. (a) Depiction of the structural modeling protocol: after alignment to the known PxIxIT binding site, an efficient flexible backbone structure refinement algorithm is applied to estimate the docking energy. […] (c) Coefficients of the equivalent single-site model fitted by sparse linear regression, shown in weight logo representation. […] Colors indicate physical property (black = hydrophobic, red = negatively charged, etc.). (d) Per-gene distribution of docking scores across natural fragments (lower is better). […] (e) Overview of the microarray screening. Peptides are printed on the chip (two circles per peptide). After pouring of Cn and subsequent washing, fluorescent-tagged, a Cn-targeting antibody is overlaid and an image is taken. Fluorescent spots indicate strong Cn binders. (f) Scatter plot of the sequence likelihood (normalized by length, higher is better) against fluorescence level (higher is better, see Methods for details of the data analysis).
In parallel, selected peptides were tested for Cn binding on a chip microarray (PEPperPRINT). 786 peptides were printed on the chip and were incubated with GST-tagged Cn overnight at 4°C. Following extensive washing, binding was detected by applying a fluorescently labeled (Alexa-Fluor 647) GST antibody. […] The experiment was repeated five times, and Z-normalized fluorescence levels were determined following post-processing of the raw data (Methods, S5A, S5B and S5C Fig).
The peptide array was prepared as a custom array pepper chip (PEPperPRINT). For binding detection, 1mg/ml GST-tagged Cn was incubated overnight on the microarray at 4°C. Following extensive washing, fluorescently labeled (Alexa-Fluor 647) GST-antibody. […] The experiment was repeated five times. Each scan was analyzed as follows: a grid was overlaid using the border HA markers to determine regions of interest (ROI) for each peptide (two ROIs per peptide) and the logarithm of the average fluorescence intensity was computed for each ROI. […] To remove spatial artifacts, a position-dependent baseline fluorescence was fitted using a second-order polynomial, and subtracted to the fluorescence. Fluorescence levels were next averaged over the two ROI for each peptide and Z-normalized. […] The Z-scores were averaged over the five repetitions to yield one fluorescence score per peptide.

Setting [1] is: GST-tagged Cn, max over the spots named in Location on chip.
Where [2] appears, read: GST-tagged Cn, mean over the spots named in Location on chip.
Where [3] appears, read: max over the chip locations listed for the peptide (two spots).
Where [4] appears, read: mean over the chip locations listed for the peptide (two spots).
[5] abbreviates: GST-tagged Cn, max over the chip spots listed under Location on chip.
Where [6] appears, read: GST-tagged Cn, mean over the chip spots listed under Location on chip.
Where [7] appears, read: GST-tagged Cn, max over the spots on the chip (two locations).
Where [8] appears, read: GST-tagged Cn, mean over the spots on the chip (two locations).
Setting [9] is: max over the spots listed under Location on chip.
[10] abbreviates: mean over the spots listed under Location on chip.
Where [11] appears, read: GST-tagged Cn, max over the chip locations.
[12] abbreviates: GST-tagged Cn, mean over the chip locations.

On to “PGLYENALGMESFSIS [SeqCRZ1_Ajellomyces_capsulatus]”, for which the “Chip Fluorescence (max)” value under setting [1] came to 1.795. Further, the “Chip Fluorescence (mean)” value under setting [2] was 0.6954.
Take GTLYDNVLGIESFSLS [SeqRBMlowT_4817]: the “Chip Fluorescence (max)” value under setting [3] was determined as 3.464. Further, the “Chip Fluorescence (mean)” value under setting [4] is recorded as 0.964.
Regarding LTWTSNDMKLHLSGVS [Seqshuffled_9827], the “Chip Fluorescence (max)” value under setting [5] turned out to be 0.7935. Moreover, the “Chip Fluorescence (mean)” value under setting [6] is -0.8344.
Take RNPGQALLTLRGHKKQ [SeqRBMlowT_5826]: the “Chip Fluorescence (max)” value under setting [7] worked out at 1.2153. In addition, the “Chip Fluorescence (mean)” value under setting [8] came out at 0.1411.
With HSKLIPKLSISSPVHH [SeqRBMlowT_1731], the “Chip Fluorescence (max)” value under setting [5] stood at 0.5936. In addition, the “Chip Fluorescence (mean)” value under setting [6] is given as -1.087.
GVHSCPALSVDRPQNQ [Seqshuffled_9565]: the “Chip Fluorescence (max)” value under setting [7] is recorded as 1.31. For the same sequence, the “Chip Fluorescence (mean)” value under setting [8] is -0.01046.
Regarding RKDSAVTQWGFSNLWA [Seqrandom_9950], the “Chip Fluorescence (max)” value under setting [3] came out at 4.744. In addition, under setting [4], the “Chip Fluorescence (mean)” value amounted to 1.033.
As for ADEAIPEIVISPPELP [SeqRBMlowT_1959], the “Chip Fluorescence (max)” value under setting [9] is 3.309. Also, the “Chip Fluorescence (mean)” value under setting [10] worked out at 0.2863.
Consider TSPDQPCIDVHQSESE [SeqRBM_4309], for which the “Chip Fluorescence (max)” value under setting [9] is 2.7949. In addition, the “Chip Fluorescence (mean)” value under setting [10] is 0.9383.
On to HSKSIPKFSFQSPVHH [SeqRBMlowT_1680], for which the “Chip Fluorescence (max)” value under setting [11] worked out at 0.06895. For the same sequence, the “Chip Fluorescence (mean)” value under setting [12] was -0.7142.
For EDGKVPSIEIDVREYA [SeqRBM_7430], the “Chip Fluorescence (max)” value under setting [9] was found to be 2.944. For the same sequence, under setting [10], the “Chip Fluorescence (mean)” value is 0.8153.
As for APSKITEVVVHECEVL [SeqRBM_4402], under setting [1], the “Chip Fluorescence (max)” value is given as 1.576. Further, under setting [2], the “Chip Fluorescence (mean)” value is -0.4054.
Turning to VNLPIPAVQLADSGAY [SeqRBM_1417], the “Chip Fluorescence (max)” value under setting [9] is listed as 2.788. Under setting [10], the “Chip Fluorescence (mean)” value was found to be 0.6718.
For LKDEIPEVRLNIISNL [SeqRBMlowT_1003], the “Chip Fluorescence (max)” value under setting [3] turned out to be 3.957. For the same sequence, under setting [4], the “Chip Fluorescence (mean)” value came to 2.453.
Take TFWTNPQFRITLEDPD [SeqRBMlowT_31]: the “Chip Fluorescence (max)” value under setting [9] was found to be 2.946. Also, the “Chip Fluorescence (mean)” value under setting [10] is listed as 1.658.
On to TFWTNPQYRITLTDVD [SeqRBMlowT_7188], for which, under setting [5], the “Chip Fluorescence (max)” value amounted to 0.6928. The “Chip Fluorescence (mean)” value under setting [6] is listed as -1.3023.
Turning to QLRDIFQGRMITILTP [Seqshuffled_3466], under setting [5], the “Chip Fluorescence (max)” value is 0.7348. Under setting [6], the “Chip Fluorescence (mean)” value was -0.3913.
HSKFIPKLSIQSPVLH [SeqRBMlowT_6746]: the “Chip Fluorescence (max)” value under setting [1] stood at 1.7974. Besides, the “Chip Fluorescence (mean)” value under setting [2] was -0.2423.
Regarding RTLINPSVAFLYMGSR [SeqRBM_5357], the “Chip Fluorescence (max)” value under setting [7] was found to be 1.016. Besides, the “Chip Fluorescence (mean)” value under setting [8] is -0.7287.
PSLYENALGMEAFTIS [SeqRBMlowT_4846]: under setting [1], the “Chip Fluorescence (max)” value was 1.442. In addition, the “Chip Fluorescence (mean)” value under setting [2] is 0.7319.
For DSLYQEVLGIRSFSLS [SeqRBM_8930], the “Chip Fluorescence (max)” value under setting [5] is given as 0.6781. For the same sequence, the “Chip Fluorescence (mean)” value under setting [6] stood at 0.06214.
Regarding “PVHTIHRVSLQDAGKY [SeqCEACAM5_Aedes_aegypti]”, under setting [5], the “Chip Fluorescence (max)” value came out at 0.8319. Besides, under setting [6], the “Chip Fluorescence (mean)” value is listed as -0.7144.
As to AHVSVPVIVVSPGETI [SeqRBM_3486], the “Chip Fluorescence (max)” value under setting [11] came out at 0.2381. For the same sequence, under setting [12], the “Chip Fluorescence (mean)” value is reported as -0.4942.
Turning to KGCAAPAISIDFAPIN [SeqRBM_541], the “Chip Fluorescence (max)” value under setting [3] turned out to be 6.269. Besides, the “Chip Fluorescence (mean)” value under setting [4] was determined as 0.8691.
For DAHACAVLGIGSFSLL [SeqRBM_9753], the “Chip Fluorescence (max)” value under setting [7] turned out to be 1.031. In addition, under setting [8], the “Chip Fluorescence (mean)” value was -0.08931.
Consider NDHNTNDWSFELGQTV [Seqshuffled_9000], for which the “Chip Fluorescence (max)” value under setting [3] is 3.477. Also, under setting [4], the “Chip Fluorescence (mean)” value is 1.051.
In the case of TFWTNPQYKIKLEEPD [SeqRBMlowT_46], the “Chip Fluorescence (max)” value under setting [5] was found to be 0.956. The “Chip Fluorescence (mean)” value under setting [6] is recorded as -0.7275.
Turning to TFWTNPQFRLKIPQVD [SeqRBMlowT_93], under setting [9], the “Chip Fluorescence (max)” value worked out at 3.328. In addition, the “Chip Fluorescence (mean)” value under setting [10] worked out at 1.497.
For TFWTNPQYKIKLEDPD [SeqRBMlowT_629], the “Chip Fluorescence (max)” value under setting [5] is 0.8637. The “Chip Fluorescence (mean)” value under setting [6] was -0.07489.
On to “NGPGTPSRQGQPAAPS [SeqRTS1_Penicillium_nalgiovense]”, for which the “Chip Fluorescence (max)” value under setting [5] amounted to 0.9409. Further, the “Chip Fluorescence (mean)” value under setting [6] is on record as -0.6593.
Take STSSLPTFSFSPPQPT [SeqRBMlowT_3908]: the “Chip Fluorescence (max)” value under setting [9] is listed as 2.68. For the same sequence, the “Chip Fluorescence (mean)” value under setting [10] is listed as 0.3277.
Regarding TEWNNPQQIVGPTEGD [SeqRBM_3582], under setting [11], the “Chip Fluorescence (max)” value turned out to be 0.1516. In addition, under setting [12], the “Chip Fluorescence (mean)” value was -1.002.
Consider ADEAVPEITITPAELP [SeqRBMlowT_1267], for which the “Chip Fluorescence (max)” value under setting [9] is 2.637. For the same sequence, under setting [10], the “Chip Fluorescence (mean)” value stood at 0.3175.
With “TTAMNPQFFVQIPRTA [SeqCAPN11_Daphnia_magna_2]”, the “Chip Fluorescence (max)” value under setting [3] stood at 9.6825. Under setting [4], the “Chip Fluorescence (mean)” value is on record as 0.161.
Consider VHQCTPEVSVSVCFTC [SeqRBM_8420], for which the “Chip Fluorescence (max)” value under setting [11] was found to be 0.0911. For the same sequence, the “Chip Fluorescence (mean)” value under setting [12] is reported as -0.9088.
As for TFWTNPQYRLKIPDPD [SeqRBMlowT_280], under setting [9], the “Chip Fluorescence (max)” value is 2.677. Also, under setting [10], the “Chip Fluorescence (mean)” value was determined as 0.4774.
In the case of AQSSQPPISTKYDARG [Seqshuffled_9482], under setting [5], the “Chip Fluorescence (max)” value stood at 0.6167. The “Chip Fluorescence (mean)” value under setting [6] is given as -0.6535.
With QRFFCVRYDVNPCINW [Seqrandom_9944], the “Chip Fluorescence (max)” value under setting [3] amounted to 3.709. Besides, under setting [4], the “Chip Fluorescence (mean)” value is reported as 0.2678.
As to TTWLVVFMIPELMKLS [Seqshuffled_9855], the “Chip Fluorescence (max)” value under setting [7] is 1.271. Moreover, the “Chip Fluorescence (mean)” value under setting [8] amounted to 0.8684.
For MLDAIPEVVVSPPEEP [SeqRBM_4087], the “Chip Fluorescence (max)” value under setting [1] worked out at 1.659. Further, the “Chip Fluorescence (mean)” value under setting [2] is reported as -0.168.
Turning to AQMAPPAINIDFAPTN [SeqRBMlowT_7215], the “Chip Fluorescence (max)” value under setting [5] was determined as 0.4327. Further, the “Chip Fluorescence (mean)” value under setting [6] is recorded as -0.8945.
Turning to KAYMCPFMQFIEGGRR [SeqRBMlowT_535], under setting [5], the “Chip Fluorescence (max)” value was found to be 0.9778. For the same sequence, the “Chip Fluorescence (mean)” value under setting [6] is on record as -1.603.
On to KKDVPPKILIEPPREF [SeqRBM_6642], for which the “Chip Fluorescence (max)” value under setting [5] turned out to be 0.9085. In addition, the “Chip Fluorescence (mean)” value under setting [6] is -0.7336.
Regarding GGPGTPTRQGQPLAPS [SeqRBMlowT_7789], under setting [3], the “Chip Fluorescence (max)” value came out at 4.384. Further, under setting [4], the “Chip Fluorescence (mean)” value worked out at 0.9288.
For the sequence HVSSSPDVTLKIPQHR [SeqRBMlowT_2187], the “Chip Fluorescence (max)” value under setting [5] turned out to be 0.8915. The “Chip Fluorescence (mean)” value under setting [6] is given as -0.5849.
For ADEAIPEIVISKPEEP [SeqRBMlowT_2534], the “Chip Fluorescence (max)” value under setting [3] is 18.5398. The “Chip Fluorescence (mean)” value under setting [4] is reported as 3.2425.
As for PNLYENTLGIEQFTLS [SeqRBM_7749], under setting [1], the “Chip Fluorescence (max)” value came to 1.865. Besides, the “Chip Fluorescence (mean)” value under setting [2] is given as 0.2079.
Consider HVSSSPDIALTPEQHD [SeqRBM_7666], for which the “Chip Fluorescence (max)” value under setting [11] was 0.08725. Moreover, the “Chip Fluorescence (mean)” value under setting [12] is reported as -0.9315.
